In patent publication US11033609B2, “Cyclic acetylcholinesterase C-terminal peptide in the treatment or prevention of cancer or metastasis” (priority 2014, dated 2021):
Where a SMILES comes first, the peptide text is derived from it.

What was measured:
Assay type in all cases: cell-based, human
KG1a cells [1] = test: Annexin V/propidium iodide in vitro apoptosis (cytotoxicity) assay; conditions: 72 h
Method: (§1) The acute myeloid leukaemia (AML) KG1a cell line was maintained in RPMI medium (Invitrogen) supplemented with 100 units/ml penicillin, 100 μg/ml streptomycin and 20% foetal calf serum. The multiple myeloma (MM) cell line H929, the two breast cancer cell lines (MCF7 and MDA-MB-231), the MEC-1 cells and the primary chronic lymphocytic leukaemia cells were maintained in RPMI medium supplemented with 100 units/ml penicillin, 100 μg/ml streptomycin and 10% foetal calf serum. The media used contained acetylcholine but after the initial set of experiments an additional 100 μM of acetylcholine was added to the culture media. Cells were subsequently aliquoted (10^6 cells/ml) into 24-well plates and were incubated at 37° C. in a humidified 5% carbon dioxide atmosphere for 72 h in the presence of the peptides (T15, T30, NBP-14 and the combination of T30+NBP-14) at concentrations between 0.1 nM and 1 μM. In addition, control cultures were carried out to which no peptide was added. Cells were subsequently harvested by centrifugation and were analysed by flow cytometry using the Annexin V assay or were counted using a Vi-Cell XR cell viability counter (Beckman Coulter).
(§2) Cultured cells were harvested by centrifugation and then resuspended in 195 of calcium-rich buffer. Subsequently, 5 μl of Annexin V (eBiosciences) was added to the cell suspension and cells were incubated in the dark for 10 mins prior to washing. Cells were finally resuspended in 190 μl of calcium-rich buffer together with 10 μl of propidium iodide. Apoptosis was assessed by dual-colour immunofluorescent flow cytometry using an Accuri C6 flow cytometer and data were analysed using CFlow software (BD Biosciences).
(§3) The in vitro drug sensitivity was measured using the Annexin V/propidium iodide assay. Comparison of the effects of each peptide alone or in combination in the various cell lines and primary cells are shown below.

H929 cells [2] = test: as above; conditions: H929, 72 h
Method: as §1, §2, §3

MCF7 cells [3] = test: as above; conditions: MCF7, 72 h, peptides 0.1 nM to 1 μM
Method: as §1, §2, §3

MDA-MB-231 cells [4] = test: as above; conditions: MDA-MB-231, 72 h, peptides 0.1 nM to 1 μM
Method: as §1, §2, §3

MEC-1 cells [5] = test: as above; conditions: MEC-1, 72 h
Method: as §1, §2, §3

primary CLL cells [6] = test: as above; conditions: for apoptosis (cytotoxic effect): primary CLL cells derived from patients, 72 h
Method: as §1, §2, §3

[7] = system: normal B- and T-lymphocytes; test: Annexin V/propidium iodide apoptosis assay in normal cells; conditions: B- and T-lymphocytes from normal healthy volunteers
Method: as §2, §3
In order to assess the effects of the acetylcholinesterase-derived peptides on normal (non-malignant) cells, B- and T-lymphocytes were isolated from normal healthy volunteers (n=3).

H929 cells [8] = test: In vitro proliferation (Vi-Cell XR viable cell count); conditions: H929, concentrations above 0.1 μM
Method: as §1
(§4) Cultured cells were harvested by centrifugation and were then counted using a Vi-Cell XR cell viability counter. The number of viable cells in each culture was then expressed as a percentage of the viable cells in the control cultures (no peptide).

KG1a cells [9] = test: as above; conditions: concentrations above 0.1 μM
Method: as §1, §4

MCF7 cells [10] = test: as above; conditions: MCF7, concentrations above 0.1 μM
Method: as §1, §4

MDA-MB-231 cells [11] = test: as above
Method: as §1, §4

MEC-1 cells [12] = test: as above; conditions: MEC-1, concentrations above 0.1 μM
Method: as §1, §4

JJN3 cells [13] = test: Transwell migration assay; conditions: for migration: JJN3, 1 μM peptide, 24 h transwell, vs no peptide control
Method: (§5) The acute myeloid leukaemia (AML) KG1a cell line was maintained in RPMI medium (Invitrogen) supplemented with 100 units/ml penicillin, 100 μg/ml streptomycin and 5% foetal calf serum. The multiple myeloma (MM) cell line JJN3, the two breast cancer cell lines (MCF7 and MDA-MB-231), the primary chronic lymphocytic leukaemia cells and normal B-lymphocytes were maintained in RPMI medium supplemented with 100 units/ml penicillin, 100 μg/ml streptomycin and 5% foetal calf serum. In addition, 100 μM of acetylcholine was added to the culture media to ensure that the availability of acetylcholine was not a limiting factor in these experiments.
(§6) In vitro migration assays were performed by using 6.0 μm pore size transwell migration plates (Costar, Corning, N.Y.). A total of 10^6 CLL cells in 500 μl of RPMI media were added to the upper chamber of the transwell insert. 100 ng/ml of CXCL12 was added to the baso-lateral chamber for all the cell types tested apart from KG1a cells. […] Instead, media containing 10% foetal calf serum was added to the baso-lateral chamber in these experiments. The plates were incubated for 24 h at 37° C. in 5% CO2 in the presence of the peptides (T15, T30, NBP-14 and the combination of T30+NBP-14) at concentrations between 0.1 nM and 10 μM. In addition, control cultures were carried out to which no peptide was added. Cells were subsequently harvested by centrifugation and were analysed by flow cytometry using an Accuri C6 flow cytometer (BD). None of the conditions tested induced significant cell death in the cultures. Migration of CLL cells was determined by counting cells that migrated to the lower (baso-lateral) chamber of the transwell plate and then expressed as a percentage of the total number of cells initially added to the upper (apical) chamber.

KG1a cells [14] = test: Transwell migration assay; conditions: for migration: 1 μM peptide, 24 h transwell, vs no peptide control
Method: as §5, §6

MCF7 cells [15] = test: Transwell migration assay; conditions: for migration: MCF7, 1 μM peptide, 24 h transwell, vs no peptide control
Method: as §5, §6

MDA-MB-231 cells [16] = test: Transwell migration assay; conditions: for migration: MDA-MB-231, 1 μM peptide, 24 h transwell, vs no peptide control
Method: as §5, §6

normal B-lymphocytes = test: Transwell migration assay; conditions: normal B-lymphocytes from healthy volunteers, 1 μM peptide, 24 h transwell
Method: as §5, §6

primary CLL cells [17] = test: Transwell migration assay; conditions: for migration: primary CLL cells from 10 patients, 1 μM peptide, 24 h transwell
Method: as §5, §6

JJN3 cells [18] = test: In vitro proliferation; conditions: JJN3, concentrations of peptide >0.1 μM
H929 cells [19] = test: Transwell migration assay; conditions: H929, 1 μM NBP-14 vs baseline control
Method: as §6

MEC-1 cells [20] = test: Transwell migration assay; conditions: MEC-1, 1 μM NBP-14 vs baseline control
Method: as §6

| Compound | apoptosis (cytotoxic effect) (KG1a cells [1]) | apoptosis (cytotoxic effect) (H929 cells [2]) | apoptosis (cytotoxic effect) (MEC-1 cells [5]) | apoptosis (cytotoxic effect) (primary CLL cells [6]) | migration (JJN3 cells [13]) | migration (KG1a cells [14]) | migration (MCF7 cells [15]) | migration (MDA-MB-231 cells [16]) | migration (normal B-lymphocytes) | migration (primary CLL cells [17]) | further results |
| --- | --- | --- | --- | --- | --- | --- | --- | --- | --- | --- | --- |
| Nc1ccn([C@@H]2O[C@H](CO)[C@@H](O)[C@@H]2O)c(=O)n1 [Ara-C, reference compound] | dose-response at concentrations above 0.1 μM |  |  |  |  |  |  |  |  |  |  |
| CSCC[C@@H]1NC(=O)[C@H](Cc2ccc(O)cc2)NC(=O)[C@H](CO)NC(=O)[C@H](CO)NC(=O)[C@H](Cc2c[nH]c3ccccc23)NC(=O)[C@H](CCCNC(=N)N)NC(=O)[C@H](Cc2c[nH]cn2)NC(=O)[C@H](Cc2ccccc2)NC(=O)[C@H](CCC(=O)O)NC(=O)[C@H](C)NC(=O)[C@H](CCCCN)NC(=O)[C@H](Cc2c[nH]c3ccccc23)NC(=O)[C@H](Cc2c[nH]cn2)NC(=O)[C@H](C(C)C)NC1=O [NBP-14] (cyclo(AEFHRWSSYMVHWK)) | modest apoptotic effects | modest apoptotic effects | modest apoptotic effects | evidence of dose-response at concentrations above 0.1 μM | significant inhibited | significantly inhibited | little effect | significantly inhibited | significant reduction | significant reduction in migration | apoptosis (cytotoxic effect) (MCF7 cells [3]): relatively increased sensitivity; apoptosis (cytotoxic effect) (MDA-MB-231 cells [4]): modest apoptotic effects; apoptosis (primary CLL cells [6]; primary CLL cells, at 1 μM): ~20%; toxicity in normal (non-malignant) cells [7]: lack of toxicity; proliferation (H929 cells [8]): reduced proliferation; proliferation (KG1a cells [9]): reduced proliferation; proliferation (MCF7 cells [10]): not as significant; proliferation (MDA-MB-231 cells [11]; MDA-MB-231, peptide concentrations above 0.1 μM, compared with T15 control peptide): significant reduction in proliferation; proliferation (MEC-1 cells [12]): reduced proliferation; inhibition of migration compared with T30 (JJN3 cells [13]; JJN3, 1 μM, 24 h): significantly greater extent; migration (dose-response) (JJN3 cells [13]; JJN3, NBP-14 at concentrations ≥1 μM): significant decrease in migration; migration (dose-response) (KG1a cells [14]; NBP-14 at concentrations ≥1 μM): significant decrease in migration; migration (dose-response) (MCF7 cells [15]; MCF7, NBP-14 at concentrations ≥1 μM): failed to show a significant reduction in migration; migration (dose-response) (MDA-MB-231 cells [16]; MDA-MB-231, NBP-14 at concentrations ≥1 μM): significant decrease in migration; sensitivity of primary CLL cells to anti-migratory effect compared with normal B-cells (primary CLL cells [17]; primary CLL cells vs normal B-cells, 24 h): significantly more sensitive; proliferation (JJN3 cells [18]): anti-proliferative activity; migration (H929 cells [19]): significant reduction in cell migration; migration (MEC-1 cells [20]): significant reduction in cell migration |
| Nc1nc(F)nc2c1ncn2[C@@H]1O[C@H](CO)[C@@H](O)[C@@H]1O [fludarabine, reference compound] |  | induced a dose-response | induced a dose-response |  |  |  |  |  |  |  |  |
| Rituximab [reference compound] |  |  |  | more pronounced dose-response |  |  |  |  |  |  |  |
| T15 (NQFDHYSKQDRCSDL; listed as Homo sapiens) [reference compound] |  |  |  |  | no significant effect | did not alter | Neither the T15 nor the T30 peptide showed a significant effect |  | no significant effect | did not significantly altered |  |
| T30 (KAEFHRWSSYMVHWKNQFDHYSKQDRCSDL; listed as Homo sapiens) [reference compound] |  |  |  |  | significant inhibited | did not alter | Neither the T15 nor the T30 peptide showed a significant effect | significantly inhibited | no significant effect | did not significantly altered | proliferation (MDA-MB-231 cells [11]; MDA-MB-231, sub-nanomolar concentrations): increased proliferation; inhibition of migration compared with NBP-14 (MDA-MB-231 cells [16]; MDA-MB-231, 1 μM, 24 h): significantly less effective |
